Data reported in patent US20210330611A1, “THERAPY FOR NEUROLOGICAL DISEASES/DISORDERS” (priority 2020, published 2021).
Read-outs that look alike come from different tables or passages of the source.

Legend:
[1] = tested on: fibrin-induced microglia activation; experiment: Image-based assay of fibrin-induced microglia activation (HTS and dose response); assay type: cell-based, rat
primary microglia = assay type: cell-based, rat; details: 48 h, FIG. 12
Procedure: FIGS. 12A-E. Effects of acivicin on microglia, macrophage and whole blood cell numbers. a, Representative images showing morphology and density of primary microglia treated with vehicle or acivicin for 48 h stained with nuclei marker Hoechst or CellMask Red Whole Cell Stain. Quantification of the total number of microglia. Data are representative of one experiment with technical replicates (open symbols). b, Representative confocal images showing morphology and density of control- and acivicin-treated BMDMs treated for 24 h. Scale bar, 100 μm. Insets depict digitally zoomed in areas of regions of interest. Quantification of the total number of BMDMs in the field of view. […] Cell viability of single CD45^+ cells was assessed by Sytox blue live/dead nuclei stain. Quantification of percent cell viability of CD45^+ BMDMs treated with acivicin or left untreated. Data are from 2 independent experiments with n=4 mice per group (mean±s.d.). d, Quantification of complete blood count analysis of white blood cells (WBCs), red blood cells (RBC), platelets (PLT) (left) and composition of WBCs (right) of blood samples from healthy mice treated with saline or acivicin for 10 days. […] Quantification of total microglia cell numbers in healthy mice treated with acivicin or saline. […]
Image-based HTS of small molecule inhibitors of microglia activation. […] The plates were stored in PBS for readout by imaging.

GGT = GGT activity in spinal cord of MOG35-55 EAE mice; assay type: in vivo, mouse; details: FIG. 7e
Procedure: GGT activity assay. GGT activity was measured using the MaxDiscovery gamma-Glutamyl Transferase (GGT) Enzymatic Assay Kit (Bioo Scientific) according to the manufacturer's protocol. […]. For in vivo GGT activity assay, spinal cord tissues from the onset of MOG35-55 EAE or LPS-injected substantia nigra area at 12 h were prepared. Tissues were homogenized in 0.1 M Tris-HCl and centrifuged at 13,000 g for 30 min at 4° C. The supernatant was collected and subsequently assessed for GGT activity. The absorbance at 405 nm was detected with a SpectraMax M5 microplate reader (Molecular Devices) with SoftMax Pro 5.2 software (Phoenix Technologies Ltd.). The GGT activity in IU/1 was calculated following the manufacturer's protocol by multiplying the average increase in absorbance at 405 nm over 10 min GGT activity was also measured using a fluorescent probe, ProteoGREEN-gGlu (Goryo Chemical, Hokkaido, Japan), according to the manufacturer's protocol. Cultured BMDMs were plated on 96-well, black μ-clear-bottom microtiter plates (Greiner Bio-One) pre-coated with 25 μg/ml fibrin. […] The fluorescence intensity (excitation/emission filter pairs of 488 nm/520 nm) was measured using a SpectraMax M5 microplate reader (Molecular Devices) with SoftMax Pro 5.2 software (Phoenix Technologies).

[2] = tested on: proinflammatory gene expression; experiment: qRT-PCR of spinal cord extracts of MOG35-55 EAE mice; assay type: in vivo, mouse; details: FIG. 7h
CD4+ T cells = experiment: Flow cytometry of splenocyte T cells from MOG35-55 EAE mice; assay type: in vivo, mouse; details: splenocytes, 10 days treatment, FIG. 14C-F
Procedure: Flow cytometry. Cells were incubated with anti-mouse CD16/CD32 antibody (2.4G2) diluted in PBS with 2% FBS, and 2 mM EDTA at 4° C. for 15 min to block Fc receptor binding. Cells were stained with fluorescent-conjugated antibodies: CD3 (17A2), CD4 (GK1.5), CD8 (53-6.7), CD62L (MEL-14), CD44 (1M7), CD25 (3C7), CD11b (M1/70), CD45 (30-F11), and MHC II (M5/114.15.2). For surface labeling of GGT1, unconjugated mouse monoclonal anti-GGT1 (1:100; ab55138, Abcam) was incubated with surface markers for 1 hr at 4° C. Then FITC conjugated species-specific secondary antibody (1:100) was added for 1 hr at 4° C. For intracellular staining of IFN-γ and IL-17A, T cells were stimulated for 4 hr with Cell Activation Cocktail (BioLegend). Cells were then fixed with Cytofix/Cytoperm solution (BD Bioscience) and stained with antibodies to IL-17A (TC11-18H10.1), or IFN-γ (XMG1.2). Foxp3 (FJK-16S) staining was performed according to the manufacturer's protocol (eBioscience). Cells were analyzed by flow cytometry on an LSR II (BD Biosciences) with FlowJo software (Tree Star Inc.). Antibodies were purchased from BioLegend, BD Biosciences, or eBioscience.

neuronal viability = details: similar concentration range; cited from earlier work

With `N[C@H](C(=O)O)[C@@H]1CC(Cl)=NO1` [Acivicin, (2S)-2-amino-2-[(5S)-3-chloro-4,5-dihydro-1,2-oxazol-5-yl] acetic acid] the IC50 ([1]; Rattus norvegicus, Microglia, 48 h, Table 1, dose response 0.001-20 μM, triplicates, primary rat microglia, 48 h, read-out: Fibrin IC50) was 2 µM, the IC50 ([1]; Rattus norvegicus, Microglia, Table 7, read-out: fib_IC50) was 0.57 µM and the IC50 ([1]; Rattus norvegicus, Microglia, dose response, fibrin-induced microglia activation, read-out: Fibrin IC50) was 2 µM. The IC50 ([1]; Rattus norvegicus, Microglia, fibrin-induced microglia activation, dose response, read-out: Fibrin IC50 (uM) (Suppl. Table 7)) was 2 µM, the inhibition at 10 µM ([1]; Rattus norvegicus, Microglia, primary microglia HTS, fibrin stimulation, increased cell size (>800 μm^2) as marker of activation, read-out: Fibrin % inhibition) was 90% and the fibrin-induced microglial activation ([1]; dose-dependent, FIG. 6a) was “inhibited”. The “microglia cell number in vitro” value (primary microglia) was “did not affect”, the “GGT activity in the EAE spinal cord” value (GGT) was “decreased” and the proinflammatory gene expression [2] was “markedly reduced”. The “IFN-γ-producing T cells” value (CD4+ T cells) was “selectively decreased”, the “IL-17-producing T cells” value (CD4+ T cells) was “selectively decreased” and the neuronal viability (neuronal viability) was “does not affect”.
